Experimental data published in ChEMBL document CHEMBL5505997, “Synthesis and biological evaluation of novel peptidomimetic inhibitors of the coronavirus 3C-like protease” (Eur J Med Chem, 2024).

Experiments:
SARS-CoV-2 [1] = assay: Antiviral activity against SARS-CoV-2 infected in Vero cells assessed as reduction in viral yield measured after 48 hrs by qRT-PCR analysis; type: functional, organism-based; conditions: Severe acute respiratory syndrome coronavirus 2, Vero
Human coronavirus OC43 = assay: Antiviral activity against Human coronavirus OC43 infected in Vero cells assessed as reduction in viral yield preincubated with virus for 1 hr followed by washout and compound treatment and measured after 3 days by qRT-PCR analysis; type: functional, organism-based; conditions: Betacoronavirus 1, Vero
[2] = Cytotoxicity against human PBMC cells assessed as reduction in cell viability; type: toxicity, cell-based; conditions: pbmc
CCRF-CEM = assay: Cytotoxicity against human CEM cells assessed as reduction in cell viability; type: toxicity, cell-based; conditions: ccrf-cem
[3] = Cytotoxicity against African green monkey Vero cells assessed as reduction in cell viability; type: toxicity, cell-based; conditions: chlorocebus sabaeus, vero
Huh-7 = assay: Cytotoxicity against human Huh-7 cells assessed as reduction in cell viability; type: toxicity, cell-based; conditions: huh-7
[4] = Solubility of compound in PBS; type: physicochemical; conditions: buffer
SARS-CoV-2 [5] = assay: Antiviral activity against SARS-CoV-2 infected in human Caco-2 cells assessed as reduction in viral yield measured after 72 hrs by qRT-PCR analysis; type: functional, organism-based, Severe acute respiratory syndrome coronavirus 2
SARS-CoV-2 [6] = assay: Antiviral activity against SARS-CoV-2 infected in human Calu-3 cells assessed as reduction in viral yield measured after 72 hrs by qRT-PCR analysis; type: functional, organism-based, Severe acute respiratory syndrome coronavirus 2; conditions: Severe acute respiratory syndrome coronavirus 2, Calu-3; time 72 hrs
Caco-2 = assay: Cytotoxicity against human Caco-2 cells assessed as reduction in cell viability; type: toxicity, cell-based; conditions: caco-2
Calu-3 = assay: Cytotoxicity against human Calu-3 cells assessed as reduction in cell viability; type: toxicity, cell-based; conditions: calu-3
SARS-CoV-2 [7] = assay: Antiviral activity against SARS-CoV-2 hCoV-19/USA/GA-EHC-2811C/2021 (Omicron B.1.1.529) infected in human Calu-3 cells assessed as reduction in viral yield measured after 48 hrs by qRT-PCR analysis; type: functional, organism-based; conditions: Severe acute respiratory syndrome coronavirus 2, hCoV-19/USA/GA-EHC-2811C/2021 (Omicron B.1.1.529)
SARS-CoV-2 [8] = assay: Selectivity ratio of EC50 for antiviral activity against SARS-CoV-2 infected in Vero cells to EC50 for antiviral activity against SARS-CoV-2 infected in human Caco-2 cells; type: functional, Severe acute respiratory syndrome coronavirus 2
SARS-CoV-2 [9] = assay: Selectivity ratio of EC50 for antiviral activity against SARS-CoV-2 infected in Vero cells to EC50 for antiviral activity against SARS-CoV-2 infected in human Calu-3 cells; type: functional, Severe acute respiratory syndrome coronavirus 2
SARS-CoV-2 [10] = assay: Antiviral activity against SARS-CoV-2 hCoV-19/USA-WA1/2020 Washington strain infected in Normal human bronchial/tracheal epithelial cells cultured in air-liquid interface media assessed as reduction in viral yield pretreated with compound followed by viral infection for 4 hrs post washout and measured 3 days after virus removal by qRT-PCR analysis; type: functional, organism-based; conditions: Severe acute respiratory syndrome coronavirus 2, hCoV-19/USA-WA1/2020 Washington, Epithelial cell
[11] = target: Replicase polyprotein 1ab (Severe acute respiratory syndrome coronavirus 2, UniProt P0DTD1); assay: Inhibition of amino-terminal His-SUMO tagged SARS-CoV-2 3CLpro using HilyteFluor 488-Glu-Ser-Ala-Thr-Leu-Gln-Ser-Gly-Leu-Arg-Lys-Ala-Lys-QXL 520 as FRET peptide substrate preincubated for 90 mins followed by substrate addition and measured over 30 mins by continuous FRET assay
[12] = target: Replicase polyprotein 1ab (Severe acute respiratory syndrome coronavirus 2) (UniProt P0DTD1); assay: Potency index, ratio of nirmatrelvir IC50 to test compound IC50 for inhibition of amino-terminal His-SUMO tagged SARS-CoV-2 3CLpro using HilyteFluor 488-Glu-Ser-Ala-Thr-Leu-Gln-Ser-Gly-Leu-Arg-Lys-Ala-Lys-QXL 520 as FRET peptide substrate preincubated for 90 mins followed by substrate addition and measured over 30 mins by continuous FRET assay; conditions: time > 120.0 min
[13] = target: Replicase polyprotein 1ab (Severe acute respiratory syndrome coronavirus 2) (UniProt P0DTD1); assay: Binding affinity to SARS-CoV-2 3CLpro assessed as thermal stabilization by measuring fold increase in melting temperature incubated for 60 mins by SYPRO orange dye based thermal shift assay relative to nirmatrelvir
SARS-CoV-2 [14] = assay: Antiviral activity against wild type SARS-CoV-2 WA1 infected in HEK293T cells measured after 48 hrs by Nano-Glo luciferase assay; type: functional, organism-based; conditions: Severe acute respiratory syndrome coronavirus 2, WA1, HEK-293T
SARS-CoV-2 [15] = assay: Antiviral activity against wild type SARS-CoV-2 Omicron BA.1 infected in HEK293T cells measured after 48 hrs by Nano-Glo luciferase assay; type: functional, organism-based; conditions: Severe acute respiratory syndrome coronavirus 2, Omicron BA.1, HEK-293T
[16] = Metabolic stability in human liver microsomes assessed as half life at 1 uM measured after 0 to 90 mins by LC-MS/MS analysis; type: ADME, Microsome; conditions: time 0-90 min
[17] = Metabolic stability in human liver microsomes assessed as reduction in decay rate at 1 uM incubated for 90 mins in presence of ritonavir by LC-MS/MS analysis; type: ADME, Microsome; conditions: 1.5 h
[18] = Metabolic stability in human liver microsomes assessed as half life at 1 uM incubated for 90 mins in presence of ritonavir at 1:1 combination by LC-MS/MS analysis; type: ADME, Microsome; conditions: 1.5 h
[19] = Metabolic stability in human liver microsomes assessed as half life at 1 uM incubated for 90 mins in presence of ritonavir at 1:10 combination by LC-MS/MS analysis; type: ADME, Microsome; conditions: 1.5 h
[20] = target: Replicase polyprotein 1ab (Severe acute respiratory syndrome coronavirus 2) (UniProt P0DTD1); conditions: time 60.0 min
[21] = target: Replicase polyprotein 1ab (Severe acute respiratory syndrome coronavirus 2) (UniProt P0DTD1); conditions: time 60.0 min; remark: listed apart in the source

In the case of `Cc1cc(C(=O)N[C@@H](Cc2cccc3ccccc23)C(=O)N[C@@H](CC(C)C)C(=O)N[C@H](C=O)C[C@@H]2CCCNC2=O)no1`, the EC50 (SARS-CoV-2 [1]; 48 h) is reported as 4.6 µM, the EC90 (SARS-CoV-2 [1]; time 48 hrs) is reported as 9 µM and the EC50 (Human coronavirus OC43) is reported as 100 nM. For the same compound, the EC90 (Human coronavirus OC43; 72 h, time 3 day) was 700 nM, the CC50 [2] was 30.9 µM and the CC50 (CCRF-CEM) was 13.9 µM. It also gave a CC50 [3] of 84.3 µM, a CC50 (Huh-7) of 32.7 µM and a solubility [4] of under 0.01 mg/mL. For the same compound, the EC50 (SARS-CoV-2 [5]; Severe acute respiratory syndrome coronavirus 2, Caco-2, 72 h) was 100 nM, the EC90 (SARS-CoV-2 [5]; Severe acute respiratory syndrome coronavirus 2, Caco-2, time 72 hrs) was 1200 nM and the EC90 (SARS-CoV-2 [6]) was 4.3 µM. It also gave a CC50 (Caco-2) of over 100 µM, a CC50 (Calu-3) of over 100 µM and an EC50 (SARS-CoV-2 [7]; Calu-3, 48 h) of 1100 nM. The EC90 (SARS-CoV-2 [7]; Calu-3, time 48 hrs) was 3.5 µM, the “Ratio EC50” value (SARS-CoV-2 [8]) was 15 and the “Ratio EC50” value (SARS-CoV-2 [9]) was 3. The EC50 (SARS-CoV-2 [10]) was 600 nM, the EC90 (SARS-CoV-2 [10]) was 1800 nM and the IC50 [11] was 166 nM. It also gave a Ratio IC50 [12] of 2, a fold change (FC) [13] of 2 and an EC50 (SARS-CoV-2 [14]) of 200 nM. The EC50 (SARS-CoV-2 [15]) was 320 nM, the t1/2 [16] was under 5 min and the Stability [17] was “Stable”. It also gave a t1/2 [18] of over 90 min, a t1/2 [19] of over 90 min and a Tm [20] of 69.9 °C. It also gave a ΔTm [21] of 13.9 °C.
